The METLIN SMRT retention time set (Domingo-Almenara et al. 2019)

Assay: gradient 5% acetonitrile 3 min, to 50% in 2 min, to 85% in 15 min, held 3 min, 100 µL/min
Conditions: column: Zorbax Extend-C18 2.1 x 50 mm; eluents: water / acetonitrile, 0.1% formic acid
Procedure, shortened: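 A Zorbax Extend-C18 column (2.1 × 50 mm, 1.8 μm) run at 100 μL/min with water and acetonitrile, both containing 0.1% formic acid, separated mixtures of ~100 pure standards. The HPLC was coupled to a quadrupole time-of-flight mass spectrometer operated in positive and negative ionization mode, with dead and dwell volumes of 40 μL and 900 μL. Each retention time was taken from a computationally picked adduct peak that was then manually inspected.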

RP-LC retention time [s]	Structure (SMILES)
669	O=C(NCc1ccc(Cl)cc1)C1CCN(c2cn[nH]c(=O)c2)CC1
860	COc1ccc(NC(=O)C2CN(S(C)(=O)=O)CC23CCCCC3)c(OC)c1 (configuration not stated)
1080	CCOc1ccc(N2C(=O)C3N=NN(Cc4nc(-c5cccc(Br)c5)no4)C3C2=O)cc1 (configuration not stated)
544	O=C(Nc1nnc(SCCN2CCOCC2)s1)C1CCC1
649	CC1=C(c2ccc(F)cc2)S(=O)(=O)N=C1N1CCCN(C(=O)c2ccncc2)CC1
1090	COc1ccc2c(c1)CCc1sc(NC(=O)c3ccccc3F)nc1-2
789	O=C(c1cn(-c2cc(N3CCSCC3)ncn2)cn1)N1CCCCC1
853	CCC(=O)N1CCc2ccccc2C1C(=O)NCc1ccc(SC)cc1 (configuration not stated)
647	CC(C)c1nnc2n1CCN(C(=O)c1cc(-c3ccccc3)n[nH]1)C2
781	O=C(Cc1ccsc1)NCCn1c(=O)n(Cc2ccc(F)cc2)c2cccnc21
940	Cc1nc(-c2csc(S(=O)(=O)N3CCCC(C(=O)NCc4ccccc4Cl)C3)c2)no1 (configuration not stated)
982	COc1ccc(NC(=O)C2CCCN(c3nc4ccccc4nc3OC)C2)cc1OC (configuration not stated)
1410	O=S(=O)(c1ccc2c(c1)CCCC2)N1CCCC1c1nc(-c2cccc(Cl)c2)no1 (configuration not stated)
863	CCCn1cc(CCNC(=O)Nc2cc(Cl)ccc2C)c2cccnc21
565	Cn1ccnc1C(=O)N1CCc2nn(CC3CC3)c(=O)n2CC1
734	CCn1cc(C)c(C(=O)O)c1CC(=O)NCc1ccc2c(c1)OCO2
601	COCCNC(=O)CC1CCN(C(=O)c2ccc3oc(C4CC4)nc3c2)CC1
803	CCNc1nc(C)cc(N2CCN(S(=O)(=O)c3cc(C(C)(C)C)ccc3OC)CC2)n1

RP-LC retention time [s]	Structure (SMILES)
731	COc1ccc(N2CC(NC(=O)NCCC3=CCCCC3)CC2=O)cc1 (configuration not stated)
637	Cc1c2ccncc2cc2c1[nH]c1ccccc12
690	CN1CCN(C(=O)c2csc(N3CCN(c4cccc(Cl)c4)CC3)n2)CC1
1370	Cc1ccc(CSc2ccc(-n3nc4c(c3C)CCC4)nn2)cc1
916	COc1ccc(NC(=O)c2cnc3c(c2)c(=O)n(C)c(=O)n3-c2ccccc2)cc1Cl
610	COc1ccc(OC)c(Nc2c(-c3nc(C)no3)cnc3nc(C)ccc23)c1
963	COc1ccc(C(C)NC(=O)c2cc(-c3ccccc3)cn2C)cc1OC (configuration not stated)
620	CN(NC1=NCCO1)c1ccc2ccccc2c1
1070	Cc1ccc(Cn2c(=O)c(N3CCN(C(=O)Nc4ccc5c(c4)OCO5)CC3)nc3cccnc32)cc1
879	CC(Cc1ccco1)NC(=O)CN1C(=O)C2CCCCN2c2ccc(S(=O)(=O)N(C)C)cc21 (configuration not stated)
958	CCOC(=O)C1CCN(C(=O)C2COC3(CCCCC3)N2C(=O)c2cccc(Cl)c2)CC1 (configuration not stated)
898	COc1ccc(-c2nnc(-c3cccc([N+](=O)[O-])c3)o2)cc1
589	COc1ccc(C2C(C(=O)NCCCN3CCCCCC3)CCC(=O)N2c2ccc(OC)cc2)cc1 (configuration not stated)
700	COc1ccc(-c2nnc(SCc3cc(=O)n4ccsc4n3)o2)cc1OC
575	O=C(CCCc1ccccc1)N1CCN(c2ccc(Nc3cccnc3)nn2)CC1
647	Cc1cc(C(=O)N2CCCCC2c2nncn2-c2ccccc2)nn1C (configuration not stated)
984	O=C(Cn1nc2c(N3CCc4ccccc4C3)nccn2c1=O)NCCC1=CCCCC1
873	Cc1oc2ccn(Cc3ccc(F)cc3)c(=O)c2c1C(=O)O

Structure (SMILES)	RP-LC retention time [s]
CC(Cc1ccccc1)NC(N)=O (configuration not stated)	698
